Each structure is given as a SMILES string. Like-named read-outs stand apart in the source and are kept apart here. Where a SMILES comes first, the peptide text is derived from it. [ ]: non-standard residue; d: D form. Aib = CC(C)(N)C(=O)O

The target of assay [1] is T1, GLP-1R (Homo sapiens, UniProt P43220). The assay can be described thus: β-arrestin 2 recruitment (BRET). Details: expressed in transfected cells; host or cells: HEK293T. The following applies: GLP-1R WT, HEK293T; for Emax: HEK-293T. The class given is cell-based. As for the experimental part:
HEK293T cells (3.2 × 10^6 cells/10 cm plate) were grown for 24 h before transiently transfection with 15 μg plasmid containing GIPR, GLP-1R or GCGR tagged with Rluc8 and β-arrestin 2 with a Venus-tag at the N terminus at a ratio of 1:9 by Lipofectamine 3000 transfection reagent. After cells were grown for 24 h, transiently transfected cells were then seeded onto poly-D-lysine coated 96-well culture plates (50,000 cells/well) in DMEM with 10% FBS. Cells were grown for 20 h before incubation in assay buffer (HBSS supplemented with 10 mM HEPES, 0.1% BSA or 0.1% casein, pH 7.4) for 30 min at 37 °C. Coelentrazine-h (Yeasen Biotech) was added to a final concentration of 5 μM for 5 min before bioluminescence resonance energy transfer (BRET) readings were made using an EnVision plate reader (PerkinElmer). BRET baseline measurements were collected for 15 cycles prior to ligand addition. After which, BRET was measured for 55 cycles.

The target of assay [2] is T1, GLP-1R. The assay can be described thus: Whole-cell binding assay, competition with 125I-GLP-1(7-36)NH2. Details: Flag; expressed in transfected cells. As for the experimental part:
(§1) Human embryonic kidney 293 cells containing SV40 large T-antigen (HEK293T) were cultured in DMEM (Gibco) supplemented with 10% (v/v) fetal bovine serum (FBS, Gibco), 1 mM sodium pyruvate (Gibco) and 100 units/mL penicillin and 100 μg/mL streptomycin at 37 °C in 5% CO2. Chinese hamster ovary (CHO-K1) cells were cultured in F-12 (Gibco) containing 10% FBS, 100 units/mL penicillin and 100 μg/mL streptomycin at 37 °C in 5% CO2. For cAMP and receptor expression assays, HEK293T cells were seeded into 6-well cell culture plates at a density of 7 × 10^5 cells per well. After overnight incubation, cells were transfected with GIPR, GLP-1R or GCGR construct using Lipofectamine 2000 or Lipofectamine 3000 transfection reagent (Invitrogen). For whole-cell binding assay, CHO-K1 cells were seeded into 96-well fibronectin-treated cell culture plates at a density of 3 × 10^4 cells per well. After overnight incubation, cells were transfected with GIPR, GLP-1R or GCGR construct using Lipofectamine 2000 transfection reagent (Invitrogen). Following 24 h culturing, the transfected cells were ready for use.
For GLP-1R and GCGR, CHO-K1 cells (30,000 cells/well) were seeded into Isoplate-96 plates and incubated for 24 h at 37 °C in 5% CO2. The WT or mutant constructs were transiently transfected using Lipofectamine 2000 transfection reagent as previous described. They were then washed twice using F-12 with 0.1% BSA or 0.1% casein, 33 mM HEPES, and incubated for 2 h at 37 °C. […] Cells were washed three times with ice-cold PBS and lysed in PBS with 1% Triton X-100, 20 mM Tris-HCl. After addition of scintillation cocktail (PerkinElmer), radioactivity (CPM) was counted on a MicroBeta^2 microplate counter (PerkinElmer). Data were normalized to the WT response and analyzed using three-parameter logistic equation.

For assay [3], the target named is T2, GIPR (Homo sapiens, UniProt P48546).
T2 sequence (P48546 22-466): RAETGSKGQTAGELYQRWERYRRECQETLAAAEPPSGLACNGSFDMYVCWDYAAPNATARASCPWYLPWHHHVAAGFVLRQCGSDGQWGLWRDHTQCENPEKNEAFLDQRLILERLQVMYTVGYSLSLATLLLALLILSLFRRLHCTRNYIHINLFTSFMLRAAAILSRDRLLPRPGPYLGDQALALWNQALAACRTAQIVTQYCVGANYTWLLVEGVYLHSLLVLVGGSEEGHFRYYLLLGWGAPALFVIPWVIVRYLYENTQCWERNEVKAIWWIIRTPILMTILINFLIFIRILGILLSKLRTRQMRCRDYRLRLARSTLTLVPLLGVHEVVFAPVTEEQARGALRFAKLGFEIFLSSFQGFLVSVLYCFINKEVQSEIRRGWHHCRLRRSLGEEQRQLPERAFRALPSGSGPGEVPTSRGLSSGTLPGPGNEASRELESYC
Nature of the assay: cAMP accumulation assay (LANCE Ultra cAMP kit), GIPR WT, mutant or modified constructs. The assay is classed as cell-based. Details: acylated tirzepatide to the full-length or modified; Flag; expressed in transfected cells; host or cells: HEK293T. The following applies: for Emax: HEK-293T; for Emax / EC50: HEK293T. As for the experimental part: as §1
A BRIL fusion protein was added at the N-terminal of the ECD with a TEV protease site and 2GSA linker between them. C-terminal 45 amino acids (Q422-C466) of the receptor were truncated. LgBiT was added at the end of helix 8 with a 15-amino acid (15AA) polypeptide linker in between, followed by a TEV protease cleavage site and an OMBP-MBP tag. […] The construct and various mutants of human GIPR were cloned into pcDNA3.1 vector for cAMP accumulation and whole-cell binding assays.
For GIPR, GLP-1R and GCGR, multi-targeting agonist stimulated cAMP accumulation was measured by a LANCE Ultra cAMP kit (PerkinElmer). After 24 h culture, the transfected cells were seeded into 384-well microtiter plates at a density of 3,000 cells per well in HBSS supplemented with 5 mM HEPES, 0.1% (w/v) BSA or 0.1% (w/v) casein and 0.5 mM 3-isobutyl-1-methylxanthine. The cells were stimulated with different concentrations of peptide agonists for 40 min at RT. Eu-cAMP tracer and ULight^TM-anti-cAMP were then diluted by cAMP detection buffer and added to the plates separately to terminate the reaction. Plates were incubated at RT for 1 h and the fluorescence intensity measured at 620 nm and […] by an EnVision multilabel plate reader (PerkinElmer).

Where [4] appears, read: GIPR WT, 0.1% BSA, read-out: cAMP accumulation Emax.
The mark [5] stands for this setting: GIPR WT, 0.1% casein, read-out: cAMP accumulation Emax.

T1 sequence (P43220 24-463): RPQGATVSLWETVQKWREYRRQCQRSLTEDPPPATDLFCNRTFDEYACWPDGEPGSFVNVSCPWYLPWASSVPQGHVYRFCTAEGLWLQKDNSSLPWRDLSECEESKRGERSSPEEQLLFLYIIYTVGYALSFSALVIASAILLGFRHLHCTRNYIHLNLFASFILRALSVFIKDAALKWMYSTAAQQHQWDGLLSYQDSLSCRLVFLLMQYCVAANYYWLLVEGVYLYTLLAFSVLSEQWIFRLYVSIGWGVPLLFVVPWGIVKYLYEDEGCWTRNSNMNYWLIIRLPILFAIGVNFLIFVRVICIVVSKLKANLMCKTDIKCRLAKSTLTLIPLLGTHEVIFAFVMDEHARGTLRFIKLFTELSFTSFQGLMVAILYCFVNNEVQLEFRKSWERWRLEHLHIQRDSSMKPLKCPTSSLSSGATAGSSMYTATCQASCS

In the case of `CC(C)C[C@H](NC(=O)[C@H](CC(C)C)NC(=O)[C@H](Cc1c[nH]c2ccccc12)NC(=O)[C@H](CCC(N)=O)NC(=O)[C@@H](NC(=O)[C@H](Cc1ccccc1)NC(=O)[C@H](CC(=O)O)NC(=O)[C@H](CCC(N)=O)NC(=O)[C@H](C)NC(=O)[C@H](C)NC(=O)[C@H](CCCNC(=N)N)NC(=O)[C@H](CCC(=O)O)NC(=O)[C@H](CC(=O)O)NC(=O)[C@H](CC(C)C)NC(=O)[C@H](Cc1ccc(O)cc1)NC(=O)[C@H](CCCCN)NC(=O)[C@H](CO)NC(=O)[C@H](CCCCN)NC(=O)[C@H](CC(=O)O)NC(=O)[C@H](CO)NC(=O)[C@@H](NC(=O)[C@H](Cc1ccccc1)NC(=O)[C@@H](NC(=O)CNC(=O)[C@H](CCC(N)=O)NC(=O)C(C)(C)NC(=O)[C@@H](N)Cc1c[nH]cn1)[C@@H](C)O)[C@@H](C)O)C(C)C)C(=O)N[C@@H](CC(=O)O)C(=O)NCC(=O)NCC(=O)N1CCC[C@H]1C(=O)N[C@@H](CO)C(=O)N[C@@H](CO)C(=O)NCC(=O)N[C@@H](C)C(=O)N1CCC[C@H]1C(=O)N1CCC[C@H]1C(=O)N1CCC[C@H]1C(=O)N[C@@H](CO)C(N)=O` [Non-lipidated peptide 20] (H-H[Aib]QGTFTSDKSKYLDERAAQDFVQWLLDGGPSSGAPPPS-NH2; N-terminus and C-terminus assumed), the Emax in assay [1] (0.1% BSA) is 65.4 ± 1.04%; in assay [1] (0.1% casein), 64.3 ± 3.97%; in assay [3] (setting [4]) it was 99.4 ± 6.44%; in assay [3] (setting [5]), 88.5 ± 6.52%. Besides, the “decrease of binding ability (IC50) vs peptide 20” value in assay [2] (GLP-1R, 0.1% casein or 0.1% BSA) was 3- to 17 fold. Moreover, the “reduction of cAMP accumulation vs peptide 20” value in assay [3] (GIPR, 0.1% BSA) is on record as 1,288 fold. Also, the “EC50 for cAMP accumulation relative to peptide 20” value in assay [3] (GIPR, 0.1% casein) was −871 fold.
Turning to `CCCCCCCCCCCCCCCC(=O)N[C@@H](CCC(=O)NCCCC[C@H](NC(=O)[C@H](CC(=O)O)NC(=O)[C@H](CO)NC(=O)[C@@H](NC(=O)[C@H](Cc1ccccc1)NC(=O)[C@@H](NC(=O)CNC(=O)[C@H](CCC(N)=O)NC(=O)C(C)(C)NC(=O)[C@@H](N)Cc1c[nH]cn1)[C@@H](C)O)[C@@H](C)O)C(=O)N[C@@H](CO)C(=O)N[C@@H](CCCCN)C(=O)N[C@@H](Cc1ccc(O)cc1)C(=O)N[C@@H](CC(C)C)C(=O)N[C@@H](CC(=O)O)C(=O)N[C@@H](CCC(=O)O)C(=O)N[C@@H](CCCNC(=N)N)C(=O)N[C@@H](C)C(=O)N[C@@H](C)C(=O)N[C@@H](CCC(N)=O)C(=O)N[C@@H](CC(=O)O)C(=O)N[C@@H](Cc1ccccc1)C(=O)N[C@H](C(=O)N[C@@H](CCC(N)=O)C(=O)N[C@@H](Cc1c[nH]c2ccccc12)C(=O)N[C@@H](CC(C)C)C(=O)N[C@@H](CC(C)C)C(=O)N[C@@H](CC(=O)O)C(=O)NCC(=O)NCC(=O)N1CCC[C@H]1C(=O)N[C@@H](CO)C(=O)N[C@@H](CO)C(=O)NCC(=O)N[C@@H](C)C(=O)N1CCC[C@H]1C(=O)N1CCC[C@H]1C(=O)N1CCC[C@H]1C(=O)N[C@@H](CO)C(N)=O)C(C)C)C(=O)O` [Peptide 20], the Emax was 73.5 ± 1.86% in assay [1] (0.1% BSA); 81 ± 1.28% in assay [1] (0.1% casein); 99.9 ± 1.18% in assay [3] (setting [4]); 100 ± 1.51% in assay [3] (setting [5]); 99.2 ± 1.85% in assay [3] (GIPR WT, read-out: cAMP Emax); 100 ± 1.48% in assay [3] (GIPR, n = 4, SEM, read-out: cAMP Emax ± S.E.M.). The IC50 in assay [2] (Fig. 7c receptor binding profile, n = 3 in duplicate, SEM, read-out: GLP-1R (pIC50 ± S.E.M.) (converted)) is 3.39 nM; in assay [2] (GLP-1R WT, CHO-K1, read-out: binding pIC50 (converted)), 6.17 nM. The “binding Span” value in assay [2] (GLP-1R WT, 0.1% casein, CHO-K1) is on record as 85.25 ± 8.33; in assay [2] (GLP-1R WT, CHO-K1), 99.44 ± 2.88 % WT. Moreover, the EC50 in assay [3] (GIPR WT, read-out: cAMP pEC50 (converted)) is 0.0135 nM; in assay [3] (GIPR, n = 4, SEM, read-out: cAMP pEC50 ± S.E.M. (converted)), 0.00447 nM.
As for `CC[C@H](C)[C@H](NC(=O)[C@H](CC(C)C)NC(=O)[C@H](Cc1c[nH]c2ccccc12)NC(=O)[C@H](CCC(N)=O)NC(=O)[C@@H](NC(=O)[C@H](Cc1ccccc1)NC(=O)[C@H](C)NC(=O)[C@H](CCCCN)NC(=O)[C@H](CCC(N)=O)NC(=O)[C@H](C)NC(=O)[C@@H](NC(=O)[C@H](CCCCN)NC(=O)[C@H](CC(=O)O)NC(=O)[C@H](CC(C)C)NC(=O)C(C)(C)NC(=O)[C@@H](NC(=O)[C@H](CO)NC(=O)[C@H](Cc1ccc(O)cc1)NC(=O)[C@H](CC(=O)O)NC(=O)[C@H](CO)NC(=O)[C@@H](NC(=O)[C@H](Cc1ccccc1)NC(=O)[C@@H](NC(=O)CNC(=O)[C@H](CCC(=O)O)NC(=O)C(C)(C)NC(=O)[C@@H](N)Cc1ccc(O)cc1)[C@@H](C)O)[C@@H](C)O)[C@@H](C)CC)[C@@H](C)CC)C(C)C)C(=O)N[C@@H](C)C(=O)NCC(=O)NCC(=O)N1CCC[C@H]1C(=O)N[C@@H](CO)C(=O)N[C@@H](CO)C(=O)NCC(=O)N[C@@H](C)C(=O)N1CCC[C@H]1C(=O)N1CCC[C@H]1C(=O)N1CCC[C@H]1C(=O)N[C@@H](CO)C(N)=O` [Non-acylated tirzepatide], the EC50 in assay [1] (0.1% casein, read-out: β-arrestin 2 recruitment pEC50 (converted)) is 27.5 nM; in assay [3] (GIPR WT, 0.1% BSA, read-out: cAMP accumulation pEC50 (converted)), 0.00182 nM. Also, the Emax turned out to be 36.6 ± 0.52% in assay [1] (0.1% BSA) and 40.77 ± 0.37% in assay [1] (0.1% casein). The “binding Span” value in assay [2] (GLP-1R WT, 0.1% casein, CHO-K1) is given as 80.39 ± 9.18; in assay [2] (GLP-1R, effect of tirzepatide acylation, CHO-K1), 81.36 ± 4.36 % WT or Tirzepatide. Besides, the IC50 in assay [2] (GLP-1R WT, 0.1% casein, CHO-K1, read-out: Binding pIC50 (converted)) is 24.5 nM; in assay [2] (GLP-1R, effect of tirzepatide acylation, CHO-K1, read-out: binding pIC50 (converted)), 12.3 nM.
